Results reported in BigSolDB 2.1.

CCOc1cc(C=O)ccc1O
solubility (mole fraction)
Conditions	273.15 K	278.15 K	283.15 K	288.15 K	293.15 K	298.15 K	303.15 K	308.15 K	313.15 K
in acetone	0.199	0.216	0.237	0.271	0.3	0.33	0.369	0.416	0.459
in ethanol	0.0564	0.0721	0.0911	0.109	0.141	0.183	0.224	0.283	0.34
in isopropanol	0.0336	0.0433	0.0552	0.072	0.0957	0.124	0.166	0.221	0.294
in methanol	0.0867	0.114	0.147	0.181	0.214	0.257	0.307	0.358	0.418
